Among the data in PubChem BioAssay (NCI) are GI50 and TGI values, retold here.

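Five concentrations, 48 hours, 96-well plates. GI50 is the concentration that inhibits growth by half. TGI is the concentration that stops growth completely.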 Some results are limits rather than exact numbers.

Test systems include NCI-H226 lung; HOP-92 NSCLC; NCI-H23 lung; SK-MEL-28 melanoma; HCT-116 colon; CAKI-1 renal; RPMI-8226 leukemia; SK-OV-3 ovarian; UACC-62 melanoma; SK-MEL-2 melanoma.
Test in all cases: growth of human tumour cells (NCI), 48 h

In the case of `S=c1[nH]c(=S)c2cc3ccccc3nc2[nH]1`, the GI50 in the assay on NCI-H226 lung is more than 100000 nM; in the assay with HOP-92 NSCLC it was 15400 nM; in the assay with NCI-H23 lung it was 35000 nM; with SK-MEL-28 melanoma, more than 100000 nM; with HCT-116 colon it was 69800 nM; in the assay with CAKI-1 renal, more than 100000 nM. Further, the GI50 was 7960 nM in the assay with RPMI-8226 leukemia, more than 100000 nM with SK-OV-3 ovarian, 69500 nM in the assay on UACC-62 melanoma and 26100 nM with SK-MEL-2 melanoma. Besides, the TGI in the assay with NCI-H226 lung, in the assay with HOP-92 NSCLC, in the assay on NCI-H23 lung, in the assay with SK-MEL-28 melanoma, in the assay with HCT-116 colon and with CAKI-1 renal was more than 100000 nM each time. For the same compound, the TGI was more than 100000 nM in the assay with RPMI-8226 leukemia, more than 100000 nM with SK-OV-3 ovarian, more than 100000 nM with UACC-62 melanoma and 84700 nM in the assay on SK-MEL-2 melanoma.

As to `CCC[CH2][Sn]([CH2]CCC)([O]C(=O)c1ccc(OC)c(OC)c1OC)[O][Sn]([CH2]CCC)([CH2]CCC)[O]C(=O)c1ccc(OC)c(OC)c1OC`, the GI50 in the assay with NCI-H226 lung is 330 nM; in the assay on HOP-92 NSCLC, 159 nM; in the assay with NCI-H23 lung it was 142 nM; in the assay on SK-MEL-28 melanoma it was 250 nM; in the assay on HCT-116 colon it was 276 nM; with CAKI-1 renal it was 96.1 nM. For the same compound, the GI50 in the assay on RPMI-8226 leukemia was 104 nM; in the assay on SK-OV-3 ovarian, 1240 nM; in the assay with UACC-62 melanoma, 164 nM; in the assay with SK-MEL-2 melanoma, 160 nM. Further, the TGI was found to be 890 nM with NCI-H226 lung; 554 nM in the assay with HOP-92 NSCLC; 535 nM in the assay on NCI-H23 lung; 723 nM in the assay with SK-MEL-28 melanoma; 833 nM with HCT-116 colon; 506 nM in the assay on CAKI-1 renal. Besides, the TGI in the assay on RPMI-8226 leukemia stood at 846 nM; in the assay on SK-OV-3 ovarian, 2590 nM; in the assay on UACC-62 melanoma, 504 nM; with SK-MEL-2 melanoma, 480 nM.
